Results: patent publication US20240279241A1, “PYRIDO[4,3-D]PYRIMIDINE COMPOUNDS CAPABLE OF INHIBITING KRAS MUTANT PROTEINS” (Redx Pharma PLC, priority 2021, published 2024)
Like-named read-outs stand apart in the source and are kept apart here.

Tests used:
KRAS WT = target: T1, KRAS WT (Homo sapiens, UniProt P01116); assay: HTRF nucleotide exchange assay (NEA), KRAS WT; type: biochemical
T1 construct: Recombinant human RAS protein (2 nM); aa1-188 KRAS WT
Description: (§1) The capacity of compounds to bind KRAS G12D, other KRAS mutants and wildtype RAS isoforms was quantified using a HTRF nucleotide exchange assay. Recombinant human RAS protein (2 nM; aa1-188 KRAS WT, HRAS WT, NRAS WT, or KRAS containing the containing the G12D, G13D or Q61H amino acid substitutions, or 4 nM KRAS; aa1-188 containing the G12V, G12C, G12A or G12S amino acid substitution, an N-terminal 6×His-tag and leader sequence), and 2 nM Europium-labeled anti-6×His antibody were mixed in assay buffer (10 mM HEPES pH7.3, 150 mM NaCl, 5 mM MgCl2, 0.05% BSA, 0.0025% NP-40 and 100 mM KF) with various concentrations of compound in a 384-well plate and a volume of 5 uL. After a 60-minute incubation at room temperature, 5 ul of 200 nM EDA-GTP-DY647P1 (diluted in assay buffer) was added to the plate. Following 30-minute incubation at room temperature, time-resolved fluorescence was measured on a PerkinElmer Envision plate reader. DMSO (0.3%) and unlabeled […] (1 μM) or equivalent tool compound were used to generate the Max and Min assay signals, respectively. Data was analysed using a four-parameter logistic model to calculate IC50 values, with at least two independent replicates were performed for each compound.

KRAS G12D = target: T2, KRAS G12D (Homo sapiens, UniProt P01116, G12D); assay: HTRF nucleotide exchange assay (NEA), KRAS G12D; type: biochemical; details: recombinant human KRAS G12D aa1-188, 2 nM; lowest class = % inhibition at 10 μM
T2 construct: Recombinant human RAS protein (2 nM)
T2 sequence (P01116 1-188 isoform P01116-2 G12D): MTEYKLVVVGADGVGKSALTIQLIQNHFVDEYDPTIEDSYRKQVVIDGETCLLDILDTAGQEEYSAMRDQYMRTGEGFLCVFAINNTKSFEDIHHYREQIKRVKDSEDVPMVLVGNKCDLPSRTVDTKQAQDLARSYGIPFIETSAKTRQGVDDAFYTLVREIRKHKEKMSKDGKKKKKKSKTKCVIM
Description: as §1

T1 sequence (P01116 1-188 isoform P01116-2): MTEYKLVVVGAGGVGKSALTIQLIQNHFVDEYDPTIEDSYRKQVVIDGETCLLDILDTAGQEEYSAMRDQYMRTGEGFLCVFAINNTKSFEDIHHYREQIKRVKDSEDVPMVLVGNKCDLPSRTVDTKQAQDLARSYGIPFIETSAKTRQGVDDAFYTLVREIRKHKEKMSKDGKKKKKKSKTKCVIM

| Structure (SMILES) | IC50 (KRAS WT) [nM] | IC50 (KRAS G12D) [nM] | IC50 (KRAS WT; recombinant human KRAS WT aa1-188, 2 nM, lowest class = % inhibition at 10 μM) [nM] |
| --- | --- | --- | --- |
| C#Cc1c(F)ccc2cc(O)cc(-c3ncc4c(N5CCNC(=O)CC5)nc(OC[C@@]56CCCN5C[C@H](F)C6)nc4c3F)c12 (relative stereo) [Example 87, 1-[7-(8-ethynyl-7-fluoro-3-hydroxy-1-naphthyl)-8-fluoro-2-[[trans-2-fluoro-1,2,3,5,6,7-hexahydropyrrolizin-8-yl]methoxy]pyrido [4,3-d]pyrimidin-4-yl]-1,4-diazepan-5-one] | ≤ 10 | ≤ 10 |  |
| Nc1nc2c(-c3ncc4c(N5CCCOCC5)nc(OC[C@@]56CCCN5C[C@H](F)C6)nc4c3F)cccc2s1 (relative stereo) [Example 94, 4-[8-fluoro-4-(1,4-oxazepan-4-yl)-2-[[trans-2-fluoro-1,2,3,5,6,7-hexahydropyrrolizin-8-yl]methoxy]pyrido[4,3-d]pyrimidin-7-yl]-1,3-benzothiazol-2-amine] | 100 to 10000 | 100 to 10000 |  |
| COCCNc1nc(OCC23CCCN2CCC3)nc2c(F)c(-c3cc(O)cc4ccccc34)ncc12 [Example 12] | 100 to 10000 | 100 to 10000 |  |
| CN(c1nc(OCC23CCCN2CCC3)nc2c(F)c(-c3cc(O)cc4ccccc34)ncc12)C1CCOCC1 [Example 23, 4-[8-fluoro-2-(1,2,3,5,6,7-hexahydropyrrolizin-8-ylmethoxy)-4-[methyl(tetrahydro-pyran-4-yl)amino]pyrido[4,3-d]pyrimidin-7-yl]naphthalen-2-ol] | 100 to 10000 | 100 to 10000 |  |
| COCCCNc1nc(OCC23CCCN2CCC3)nc2c(F)c(-c3cc(O)cc4ccccc34)ncc12 [Example 29, 4-[8-fluoro-2-(1,2,3,5,6,7-hexahydropyrrolizin-8-ylmethoxy)-4-(3-methoxypropylamino)pyrido[4,3-d]pyrimidin-7-yl]naphthalen-2-ol] |  | 100 to 10000 | 100 to 10000 |
| CC(C)OCCCNc1nc(OCC23CCCN2CCC3)nc2c(F)c(-c3cc(O)cc4ccccc34)ncc12 [Example 30, 4-[8-fluoro-2-(1,2,3,5,6,7-hexahydropyrrolizin-8-ylmethoxy)-4-(3-isopropoxypropyl-amino)pyrido[4,3-d]pyrimidin-7-yl]naphthalen-2-ol] | 100 to 10000 | 100 to 10000 |  |
| Oc1cc(-c2ncc3c(NC4CCCCC4)nc(OCC45CCCN4CCC5)nc3c2F)c2ccccc2c1 [Example 35, 4-[4-(cyclohexylamino)-8-fluoro-2-(1,2,3,5,6,7-hexahydropyrrolizin-8-ylmethoxy)pyrido [4,3-d]pyrimidin-7-yl]naphthalen-2-ol] | 100 to 10000 | 100 to 10000 |  |
| OCCCNc1nc(OCC23CCCN2CCC3)nc2c(F)c(-c3cc(O)cc4ccccc34)ncc12 [Example 39, 4-[8-fluoro-2-(1,2,3,5,6,7-hexahydropyrrolizin-8-ylmethoxy)-4-(3-hydroxypropylamino)pyrido[4,3-d]pyrimidin-7-yl]naphthalen-2-ol] | 100 to 10000 | 100 to 10000 |  |
| CN(C)C(=O)CCNc1nc(OCC23CCCN2CCC3)nc2c(F)c(-c3cc(O)cc4ccccc34)ncc12 [Example 40, 3-[[8-fluoro-2-(1,2,3,5,6,7-hexahydropyrrolizin-8-ylmethoxy)-7-(3-hydroxy-1-naphthyl)pyrido[4,3-d]pyrimidin-4-yl]amino]-N,N-dimethyl-propanamide] | 100 to 10000 | 100 to 10000 |  |
| COCC(C)(C)CNc1nc(OCC23CCCN2CCC3)nc2c(F)c(-c3cc(O)cc4ccccc34)ncc12 [Example 43, 4-[8-fluoro-2-(1,2,3,5,6,7-hexahydropyrrolizin-8-ylmethoxy)-4-[(3-methoxy-2,2-dimethyl-propyl)amino]pyrido [4,3-d]pyrimidin-7-yl]naphthalen-2-ol] | 100 to 10000 | 100 to 10000 |  |
| COCCC(C)Nc1nc(OCC23CCCN2CCC3)nc2c(F)c(-c3cc(O)cc4ccccc34)ncc12 (stereo not drawn) [Example 44, 4-[8-fluoro-2-(1,2,3,5,6,7-hexahydropyrrolizin-8-ylmethoxy)-4-[(3-methoxy-1-methyl-propyl)amino]pyrido [4,3-d]pyrimidin-7-yl]naphthalen-2-ol] | 100 to 10000 | 100 to 10000 |  |
| COC(C)(C)CCNc1nc(OCC23CCCN2CCC3)nc2c(F)c(-c3cc(O)cc4ccccc34)ncc12 [Example 54, 4-[8-fluoro-2-(1,2,3,5,6,7-hexahydropyrrolizin-8-ylmethoxy)-4-[(3-methoxy-3-methyl-butyl)amino]pyrido [4,3-d]pyrimidin-7-yl]naphthalen-2-ol] | 100 to 10000 | 100 to 10000 |  |

Further lines, results first:

| IC50 (KRAS WT) [nM] | IC50 (KRAS G12D) [nM] | IC50 (KRAS WT; recombinant human KRAS WT aa1-188, 2 nM, lowest class = % inhibition at 10 μM) [nM] | Structure (SMILES) |
| --- | --- | --- | --- |
| 100 to 10000 | 100 to 10000 |  | Oc1cc(-c2ncc3c(NC4CCOCC4)nc(OCC45CCCN4CCC5)nc3c2F)c2ccccc2c1 [Example 15, 4-[8-fluoro-2-(1,2,3,5,6,7-hexahydropyrrolizin-8-ylmethoxy)-4-(tetrahydropyran-4-ylamino)pyrido[4,3-d]pyrimidin-7-yl]naphthalen-2-ol] |
| 100 to 10000 | 100 to 10000 |  | COC1CCN(c2nc(OCC34CCCN3CCC4)nc3c(F)c(-c4cc(O)cc5ccccc45)ncc23)CC1 [Example 21, 4-[8-fluoro-2-(1,2,3,5,6,7-hexahydropyrrolizin-8-ylmethoxy)-4-(4-methoxy-1-piperidyl)pyrido[4,3-d]pyrimidin-7-yl]naphthalen-2-ol] |
| 100 to 10000 | 100 to 10000 |  | Oc1cc(-c2ncc3c(N4CC5COCC5C4)nc(OCC45CCCN4CCC5)nc3c2F)c2ccccc2c1 (stereo not drawn) [Example 37, 4-[4-(1,3,3a,4,6,6a-hexahydrofuro[3,4-c]pyrrol-5-yl)-8-fluoro-2-(1,2,3,5,6,7-hexahydropyrrolizin-8-ylmethoxy)pyrido [4,3-d]pyrimidin-7-yl]naphthalen-2-ol] |
| 100 to 10000 | 100 to 10000 |  | COC1CCCN(c2nc(OCC34CCCN3CCC4)nc3c(F)c(-c4cc(O)cc5ccccc45)ncc23)C1 (stereo not drawn) [Example 42, 4-[8-fluoro-2-(1,2,3,5,6,7-hexahydropyrrolizin-8-ylmethoxy)-4-(3-methoxy-1-piperidyl)pyrido[4,3-d]pyrimidin-7-yl]naphthalen-2-ol] |
| 100 to 10000 | 100 to 10000 |  | Oc1cc(-c2ncc3c(N4CCC5(CCOC5)C4)nc(OCC45CCCN4CCC5)nc3c2F)c2ccccc2c1 (stereo not drawn) [Example 48, 4-[8-fluoro-2-(1,2,3,5,6,7-hexahydropyrrolizin-8-ylmethoxy)-4-(2-oxa-7-azaspiro[4.4]nonan-7-yl)pyrido [4,3-d]pyrimidin-7-yl]naphthalen-2-ol] |
| 100 to 10000 | 100 to 10000 |  | Oc1cc(-c2ncc3c(N4CC5COCC(C5)C4)nc(OCC45CCCN4CCC5)nc3c2F)c2ccccc2c1 [Example 49, 4-[8-fluoro-2-(1,2,3,5,6,7-hexahydropyrrolizin-8-ylmethoxy)-4-(3-oxa-7-azabicyclo[3.3.1]nonan-7-yl)pyrido[4,3-d]pyrimidin-7-yl]naphthalen-2-ol] |
| 100 to 10000 | 100 to 10000 |  | Oc1cc(-c2ncc3c(N4CC5(CCCOC5)C4)nc(OCC45CCCN4CCC5)nc3c2F)c2ccccc2c1 [Example 53, 4-[8-fluoro-2-(1,2,3,5,6,7-hexahydropyrrolizin-8-ylmethoxy)-4-(6-oxa-2-azaspiro[3.5]nonan-2-yl)pyrido[4,3-d]pyrimidin-7-yl]naphthalen-2-ol] |
| 100 to 10000 | 100 to 10000 |  | Oc1cc(-c2ncc3c(N4CCn5nccc5C4)nc(OCC45CCCN4CCC5)nc3c2F)c2ccccc2c1 [Example 57, 4-[4-(6,7-dihydro-4H-pyrazolo[1,5-a]pyrazin-5-yl)-8-fluoro-2-(1,2,3,5,6,7-hexahydropyrrolizin-8-ylmethoxy)pyrido [4,3-d]pyrimidin-7-yl]naphthalen-2-ol] |
| 100 to 10000 | 100 to 10000 |  | Oc1cc(-c2ncc3c(N4CCn5cncc5C4)nc(OCC45CCCN4CCC5)nc3c2F)c2ccccc2c1 [Example 58, 4-[4-(6,8-dihydro-5H-imidazo[1,5-a]pyrazin-7-yl)-8-fluoro-2-(1,2,3,5,6,7-hexahydropyrrolizin-8-ylmethoxy)pyrido [4,3-d]pyrimidin-7-yl]naphthalen-2-ol] |
| 100 to 10000 | 100 to 10000 |  | Oc1cc(-c2ncc3c(N4CCn5ccnc5C4)nc(OCC45CCCN4CCC5)nc3c2F)c2ccccc2c1 [Example 60, 4-[4-(6,8-dihydro-5H-imidazo[1,2-a]pyrazin-7-yl)-8-fluoro-2-(1,2,3,5,6,7-hexahydropyrrolizin-8-ylmethoxy)pyrido [4,3-d]pyrimidin-7-yl]naphthalen-2-ol] |
| 100 to 10000 | 100 to 10000 |  | Oc1cc(-c2ncc3c(N4CCc5[nH]ncc5C4)nc(OCC45CCCN4CCC5)nc3c2F)c2ccccc2c1 [Example 61, 4-[8-fluoro-2-(1,2,3,5,6,7-hexahydropyrrolizin-8-ylmethoxy)-4-(1,4,6,7-tetrahydropyrazolo [4,3-c]pyridin-5-yl)pyrido[4,3-d]pyrimidin-7-yl]naphthalen-2-ol] |
| 100 to 10000 | 100 to 10000 |  | Oc1cc(-c2ncc3c(N4CCc5cn[nH]c5C4)nc(OCC45CCCN4CCC5)nc3c2F)c2ccccc2c1 [Example 62, 4-[8-fluoro-2-(1,2,3,5,6,7-hexahydropyrrolizin-8-ylmethoxy)-4-(1,4,5,7-tetrahydropyrazolo [3,4-c]pyridin-6-yl)pyrido[4,3-d]pyrimidin-7-yl]naphthalen-2-ol] |
